Reference: patent publication US10189841B2, “Purinones as ubiquitin-specific protease 1 inhibitors” (Forma Therapeutics, Inc., priority 2015, dated 2019)

Molecular target: USP1 (construct USP1 (I-785, GG670, 671AA)/UAF1 (I-677)-Flag) (Homo sapiens (Human), UniProt O94782, G670A/G671A)
Assay: Ubiquitin-Rhodamine 110 assay for USP1 activity
Type: biochemical
Conditions: USP1/UAF1 25 pM, Ub-Rh110 25 nM, 30 min preincubation
Outline: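 Ub-Rh110 (25 nM, ≪Km) cleavage read at ex 485/em 535 in Tris pH 8.0, CaCl2, GSH, Prionex, Triton X-100. The screen used 10 µM compound, 100 pM USP1/UAF1 and 45 min at RT.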

USP1 (construct USP1 (I-785, GG670, 671AA)/UAF1 (I-677)-Flag), sequence (O94782 whole entry G670A/G671A): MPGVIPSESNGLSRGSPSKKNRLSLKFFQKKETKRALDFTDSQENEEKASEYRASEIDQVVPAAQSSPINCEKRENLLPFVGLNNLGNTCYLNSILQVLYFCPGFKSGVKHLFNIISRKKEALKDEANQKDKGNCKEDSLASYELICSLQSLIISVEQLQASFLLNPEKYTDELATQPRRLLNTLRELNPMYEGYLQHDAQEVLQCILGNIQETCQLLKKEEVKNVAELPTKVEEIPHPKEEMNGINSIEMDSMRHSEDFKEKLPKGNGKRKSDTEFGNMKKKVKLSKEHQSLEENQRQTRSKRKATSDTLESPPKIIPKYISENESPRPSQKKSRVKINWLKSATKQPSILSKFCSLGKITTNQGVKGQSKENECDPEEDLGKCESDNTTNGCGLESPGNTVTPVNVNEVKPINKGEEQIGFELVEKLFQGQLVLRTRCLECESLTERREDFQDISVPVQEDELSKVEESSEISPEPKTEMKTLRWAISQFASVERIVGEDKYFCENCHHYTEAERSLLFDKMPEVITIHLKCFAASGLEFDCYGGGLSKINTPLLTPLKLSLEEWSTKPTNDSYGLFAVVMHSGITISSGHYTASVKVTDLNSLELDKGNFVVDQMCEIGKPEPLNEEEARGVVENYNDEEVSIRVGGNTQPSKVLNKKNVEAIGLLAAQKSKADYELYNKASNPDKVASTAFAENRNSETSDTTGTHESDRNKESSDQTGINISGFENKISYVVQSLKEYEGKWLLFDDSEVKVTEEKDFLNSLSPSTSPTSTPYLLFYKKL
USP1 (construct USP1 (I-785, GG670, 671AA)/UAF1 (I-677)-Flag), sequence (Q8TAF3 whole entry partner): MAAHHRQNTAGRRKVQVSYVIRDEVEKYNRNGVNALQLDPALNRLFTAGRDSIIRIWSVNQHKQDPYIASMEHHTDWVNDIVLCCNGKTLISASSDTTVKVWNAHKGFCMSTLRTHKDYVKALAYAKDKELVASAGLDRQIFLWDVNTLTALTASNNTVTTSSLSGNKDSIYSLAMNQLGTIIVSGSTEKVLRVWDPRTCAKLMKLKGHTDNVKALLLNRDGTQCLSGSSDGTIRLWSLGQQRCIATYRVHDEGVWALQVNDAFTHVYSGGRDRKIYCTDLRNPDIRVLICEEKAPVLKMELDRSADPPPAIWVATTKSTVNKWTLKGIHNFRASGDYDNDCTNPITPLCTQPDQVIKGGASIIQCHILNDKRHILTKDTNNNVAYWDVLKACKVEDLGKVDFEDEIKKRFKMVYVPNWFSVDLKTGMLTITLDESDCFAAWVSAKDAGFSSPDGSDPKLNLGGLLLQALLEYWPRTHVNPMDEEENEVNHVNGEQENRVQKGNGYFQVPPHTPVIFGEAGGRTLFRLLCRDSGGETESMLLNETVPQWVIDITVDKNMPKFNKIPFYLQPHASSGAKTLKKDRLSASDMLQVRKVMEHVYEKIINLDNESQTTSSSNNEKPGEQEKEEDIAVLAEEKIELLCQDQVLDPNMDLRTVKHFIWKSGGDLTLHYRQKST

SMILES: CC(C)c1ccccc1-c1ncc2[nH]c(=O)n(Cc3ccccc3)c2n1 [Compound I-171, 9-benzyl-2-(2-isopropylphenyl)-7,9-dihydro-8H-purin-8-one]
- IC50: 50 to 200 nM

SMILES: CC(C)c1c(F)cccc1-c1ncc2[nH]c(=O)n(Cc3ccc(-c4nccn4C)cc3)c2n1 [Compound I-172, 2-(3-fluoro-2-isopropylphenyl)-9-(4-(1-methyl-1H-imidazol-2-yl)benzyl)-7,9-dihydro-8H-purin-8-one]
- IC50: < 50 nM

SMILES: CC(C)c1ccccc1-c1ncc2[nH]c(=O)n(Cc3ccc(-n4ccc(N5CCN(C)CC5)n4)cc3)c2n1 [Compound I-173, 2-(2-isopropylphenyl)-9-(4-(3-(4-methylpiperazin-1-yl)-1H-pyrazol-1-yl)benzyl)-7,9-dihydro-8H-purin-8-one]
- IC50: < 50 nM

SMILES: CC(C)c1ccccc1-c1ncc2[nH]c(=O)n(Cc3ccc(-n4ccc(N5CCOCC5)n4)cc3)c2n1 [Compound I-174, 2-(2-isopropylphenyl)-9-(4-(3-morpholino-1H-pyrazol-1-yl)benzyl)-7,9-dihydro-8H-purin-8-one]
- IC50: < 50 nM

SMILES: Cc1cn(-c2ccc(Cn3c(=O)[nH]c4cnc(-c5ccccc5C(C)C)nc43)cc2)nn1 [Compound I-175, 2-(2-isopropylphenyl)-9-(4-(4-methyl-1H-1,2,3-triazol-1-yl)benzyl)-7,9-dihydro-8H-purin-8-one]
- IC50: < 50 nM

SMILES: CC(C)c1ccccc1-c1ncc2[nH]c(=O)n(Cc3ccc(-c4ncc(F)n4C)cc3)c2n1 [Compound I-176, 9-(4-(5-fluoro-1-methyl-1H-imidazol-2-yl)benzyl)-2-(2-isopropylphenyl)-7,9-dihydro-8H-purin-8-one]
- IC50: < 50 nM

SMILES: CC(C)c1ccccc1-c1ncc2[nH]c(=O)n(Cc3ccc(-n4cccn4)c(F)c3)c2n1 [Compound I-177, 9-(3-fluoro-4-(1H-pyrazol-1-yl)benzyl)-2-(2-isopropylphenyl)-7,9-dihydro-8H-purin-8-one]
- IC50: < 50 nM

SMILES: CC(C)c1ccccc1-c1ncc2[nH]c(=O)n([C@H](C)c3ccc(F)cc3)c2n1 [Compound I-178, (R)-9-(1-(4-fluorophenyl)ethyl)-2-(2-isopropylphenyl)-7,9-dihydro-8H-purin-8-one]
- IC50: < 50 nM

SMILES: CC(C)c1ccccc1-c1ncc2[nH]c(=O)n([C@@H](C)c3ccc(F)cc3)c2n1 [Compound I-179, (S)-9-(1-(4-fluorophenyl)ethyl)-2-(2-isopropylphenyl)-7,9-dihydro-8H-purin-8-one]
- IC50: 50 to 200 nM

SMILES: CC(C)c1ccccc1-c1ncc2[nH]c(=O)n([C@H](CO)c3ccc(F)cc3)c2n1 [Compound I-180, (S)-9-(1-(4-fluorophenyl)-2-hydroxyethyl)-2-(2-isopropylphenyl)-7,9-dihydro-8H-purin-8-one]
- IC50: 50 to 200 nM

SMILES: CC(C)c1ccccc1-c1ncc2[nH]c(=O)n([C@H](CO)c3ccccc3)c2n1 [Compound I-181, (S)-9-(2-hydroxy-1-phenylethyl)-2-(2-isopropylphenyl)-7,9-dihydro-8H-purin-8-one]
- IC50: 200 to 2000 nM

SMILES: CC(C)c1ccccc1-c1ncc2[nH]c(=O)n(Cc3ccc4c(c3)ncn4C)c2n1 [Compound I-182, 2-(2-isopropylphenyl)-9-((1-methyl-1H-benzo[d]imidazol-5-yl)methyl)-7,9-dihydro-8H-purin-8-one]
- IC50: > 2000 nM

SMILES: CC(C)c1ccccc1-c1ncc2[nH]c(=O)n(Cc3ccc(S(C)(=O)=O)cc3)c2n1 [Compound I-183, 2-(2-isopropylphenyl)-9-(4-(methylsulfonyl)benzyl)-7,9-dihydro-8H-purin-8-one]
- IC50: > 2000 nM

SMILES: Cc1ccnn1-c1ccc(Cn2c(=O)[nH]c3cnc(-c4ccccc4C(C)C)nc32)cc1 [Compound I-184, 2-(2-isopropylphenyl)-9-(4-(5-methyl-1H-pyrazol-1-yl)benzyl)-7,9-dihydro-8H-purin-8-one]
- IC50: < 50 nM

SMILES: Cc1cnnn1-c1ccc(Cn2c(=O)[nH]c3cnc(-c4ccccc4C(C)C)nc32)cc1 [Compound I-185, 2-(2-isopropylphenyl)-9-(4-(5-methyl-1H-1,2,3-triazol-1-yl)benzyl)-7,9-dihydro-8H-purin-8-one]
- IC50: < 50 nM

SMILES: CC(C)c1ccccc1-c1ncc2[nH]c(=O)n(Cc3ccc4c(c3)CN(C)C4=O)c2n1 [Compound I-186, 2-(2-isopropylphenyl)-9-((2-methyl-1-oxoisoindolin-5-yl)methyl)-7,9-dihydro-8H-purin-8-one]
- IC50: 50 to 200 nM

SMILES: CC(C)c1ccccc1-c1ncc2[nH]c(=O)n(Cc3ccc4c(c3)CCN(C)C4=O)c2n1 [Compound I-187, 6-((2-(2-isopropylphenyl)-8-oxo-7,8-dihydro-9H-purin-9-yl)methyl)-2-methyl-3,4-dihydroisoquinolin-1(2H)-one]
- IC50: < 50 nM

SMILES: Cc1nc(-c2ccc(Cn3c(=O)[nH]c4cnc(-c5cccc(F)c5C(C)C)nc43)cc2)no1 [Compound I-188, 2-(3-fluoro-2-isopropylphenyl)-9-(4-(5-methyl-1,2,4-oxadiazol-3-yl)benzyl)-7,9-dihydro-8H-purin-8-one]
- IC50: < 50 nM

SMILES: Cc1nnc(-c2ccc(Cn3c(=O)[nH]c4cnc(-c5cccc(F)c5C(C)C)nc43)cc2)o1 [Compound I-189, 2-(3-fluoro-2-isopropylphenyl)-9-(4-(5-methyl-1,3,4-oxadiazol-2-yl)benzyl)-7,9-dihydro-8H-purin-8-one]
- IC50: < 50 nM

SMILES: Cc1cc(C)n(-c2ccc([C@@H](C)n3c(=O)[nH]c4cnc(-c5ccccc5C(C)C)nc43)cc2)n1 [Compound I-190, (R)-9-(1-(4-(3,5-dimethyl-1H-pyrazol-1-yl)phenyl)ethyl)-2-(2-isopropylphenyl)-7,9-dihydro-8H-purin-8-one]
- IC50: < 50 nM

SMILES: Cc1cc(C)n(-c2ccc([C@H](C)n3c(=O)[nH]c4cnc(-c5ccccc5C(C)C)nc43)cc2)n1 [Compound I-191, (S)-9-(1-(4-(3,5-dimethyl-1H-pyrazol-1-yl)phenyl)ethyl)-2-(2-isopropylphenyl)-7,9-dihydro-8H-purin-8-one]
- IC50: < 50 nM

SMILES: CC(C)c1ccccc1-c1ncc2[nH]c(=O)n(Cc3ccc(-c4nc(C(F)(F)F)cn4C4COC4)cc3)c2n1 [Compound I-192, 2-(2-isopropylphenyl)-9-(4-(1-(oxetan-3-yl)-4-(trifluoromethyl)-1H-imidazol-2-yl)benzyl)-7,9-dihydro-8H-purin-8-one]
- IC50: < 50 nM

SMILES: CC(C)c1c(F)cccc1-c1ncc2[nH]c(=O)n(Cc3ccc(-c4nc(C(F)(F)F)cn4C)cc3)c2n1 [Compound I-193, 2-(3-fluoro-2-isopropylphenyl)-9-(4-(1-methyl-4-(trifluoromethyl)-1H-imidazol-2-yl)benzyl)-7,9-dihydro-8H-purin-8-one]
- IC50: < 50 nM

SMILES: Cc1cc(C(F)(F)F)nn1-c1ccc(Cn2c(=O)[nH]c3cnc(-c4ccccc4C(C)C)nc32)cc1 [Compound I-194, 2-(2-isopropylphenyl)-9-(4-(5-methyl-3-(trifluoromethyl)-1H-pyrazol-1-yl)benzyl)-7,9-dihydro-8H-purin-8-one]
- IC50: < 50 nM

SMILES: Cc1cc(C(F)(F)F)n(-c2ccc(Cn3c(=O)[nH]c4cnc(-c5ccccc5C(C)C)nc43)cc2)n1 [Compound I-195, 2-(2-isopropylphenyl)-9-(4-(3-methyl-5-(trifluoromethyl)-1H-pyrazol-1-yl)benzyl)-7,9-dihydro-8H-purin-8-one]
- IC50: < 50 nM

SMILES: CC(C)c1ccccc1-c1ncc2[nH]c(=O)n(Cc3ccc(-n4ccc(C#N)n4)cc3)c2n1 [Compound I-196, 1-(4-((2-(2-isopropylphenyl)-8-oxo-7,8-dihydro-9H-purin-9-yl)methyl)phenyl)-1H-pyrazole-3-carbonitrile]
- IC50: < 50 nM
